Experimental data as given in publication PMC10784468 (Nature Communications, 2024).
Positions of bridges follow the written chain, without caps; N, C: chain ends. Residues, ends and D or L forms follow the SMILES beside them. *: point of attachment. X1 = O=C(O)c1ccc(-c2c3nc(c(-c4ccc(C(=O)O)cc4)c4ccc([nH]4)c(-c4ccc(C(=O)*)cc4)c4nc(c(-c5ccc(C(=O)O)cc5)c5ccc2[nH]5)C=C4)C=C3)cc1; X2 = O=C(O)C/C(=C/C(=O)*)C(=O)O

Columns and labels:
EJ tumor tissues [1] = assay: Tumor GSH content detection; type: in vivo, BALB/c nude mice; conditions: for Relative content of GSH: tumor
Protocol: (§1) EJ tumor tissues were collected under euthanasia at the end of treatment and washed with PBS for 3 times. Afterwards, the tumor lysates were collected by centrifugation at 8000 rpm for 10 min at 4 °C after lysed with Frozen Type Tissuelyser. Finally, the GSH contents were measured with a GSH Assay Kit based on the manufacturer’s instructions.

ζ-potential in PBS = type: physicochemical
Protocol: Supplementary Fig. 12. ζ-potential change of Gi-F-CAA (40 μM) in PBS (0.01 M, pH 7.4 or 6.5) (n=3
experimental repeats). Experiment was independently repeated three times with similar results. Values are
(1 picture or pasted object on this page, not shown here)
Supplementary Fig. 13. ζ-potential of NGi-F-CAA, Gi-F and Gi-F-SA (pH 7.4) (40 μM) in PBS (n=3

EJ xenograft tumors = assay: In vivo antitumor evaluation in EJ xenograft model (tumor volume, tumor weight, body weight); conditions: 8 mg/kg i.v.; for mean tumor volume at 18 days post injection: six injections at 2-days intervals, n = 6; for Tumor weight: six injections, 18 days
Protocol: Female BALB/c nude mice (~8 weeks, 18 g) were subcutaneously inoculated with 5 × 10^6 EJ cells resuspended in Matrigel. When the tumor size reached about 100 mm^3, EJ tumor-bearing mice were randomly divided into four groups and administrated with PBS, Gi-F (8 mg/kg in 100 μL PBS), Gi-F-SA (8 mg/kg in 100 μL PBS) and Gi-F-CAA (8 mg/kg in 100 μL PBS) by intravenous injection at 2-days intervals for six times. Individual tumor volume and bodyweight of mouse after different treatment was collected at 2-days intervals for analysis. Mice were killed at 18 days post treatment unless endpoints were exceeded. Moreover, tumors from all groups were harvested under euthanasia and weighed for analysis at the end of treatment.

EJ tumor tissues [2] = assay: Tumor MDA content detection; type: in vivo, BALB/c nude mice; conditions: for Relative content of MDA: tumor
Protocol: as §1, with “8000 g” for “8000 rpm”, “the MDA” for “the GSH”, “measured by thiobarbituric acid (TBA) reaction” for “measured”, “a Malondialdehyde (MDA)” for “a GSH”, “Kit (Solarbio Science & Technology Co., Ltd., China, BC0025)” for “Kit”

[3] = Hydrolysis of the peptide-porphyrin conjugates at pH 7.4 and 6.5 (dialysis, HPLC); type: physicochemical; conditions: 37 °C, dialysis MWCO 1000 Da, released CAA by HPLC, mean of n = 3
Protocol: In vitro hydrolysis analysis of the peptide-porphyrin conjugates was studied in pH values of 7.4 and 6.5 solutions. 20 mg of peptide-porphyrin conjugate was dissolved in 2 mL pH 7.4 buffer solution, which was then transferred into a dialysis bag (MWCO: 1000 Da) and immersed in 25 mL of different pH buffer solutions at 37 °C with continuous shaking respectively. At fixed time intervals (20 min, 40 min, 1 h, 2 h and 4 h), […] chromatography (HPLC, WATERS Alliance HPLC e2489), and an equal volume of fresh buffer solution was replaced to the system. In order to determine the CAA concentration according to the peak area of the CAA, a standard curve of the CAA was plotted, with the peak area as a function of the concentration. […]

EJ xenograft tumor = assay: Penetration assay in tumor frozen sections (Cy labeled)
Protocol: Firstly, EJ xenograft mice were administrated with Cy labeled Gi-F (8 mg/kg in 100 μL PBS) and Cy labeled Gi-F-CAA (8 mg/kg in 100 μL PBS) by intravenous injection. Afterward, EJ tumor tissues were entirely resected and protected from light. Subsequently, the tumor tissues were fixed with optimum cutting temperature (OCT) compound for 12 h at −20 °C avoiding light. Finally, the fixed tumor tissues were cut into sections and immediately observed with UltraVIEW VoX.

EJ cells = assay: Cytotoxicity assay (CCK-8) on EJ cells
Protocol: Initially, EJ cells were seeded into 96 well plates at a density of 5 × 10^3 per well and incubated in a CO2 incubator overnight at 37 °C. Subsequently, Gi-F (pH = 7.4), Gi-F-SA (pH = 7.4), NGi-F-CAA (pH = 7.4), NGi-F-CAA (pH = 6.5), Gi-F-CAA (pH = 7.4) and Gi-F-CAA (pH = 6.5) at different concentrations (1, 2, 4, 8, 16, 32, 64, 128 and 256 μM) was added to the cells and further incubated for 48 h. Finally, the cell viability rate was calculated by (Sample wells-Blank wells)/(Control wells-Blank wells) × 100%.

GPX4 = target: T1, GPX4 (Homo sapiens, UniProt P36969); assay: Tumor GPX4 activity detection; type: in vivo, BALB/c nude mice; design: from tissue; host or cells: EJ xenograft tumour tissue from BALB/c nude mice
T1 sequence (P36969 1-197): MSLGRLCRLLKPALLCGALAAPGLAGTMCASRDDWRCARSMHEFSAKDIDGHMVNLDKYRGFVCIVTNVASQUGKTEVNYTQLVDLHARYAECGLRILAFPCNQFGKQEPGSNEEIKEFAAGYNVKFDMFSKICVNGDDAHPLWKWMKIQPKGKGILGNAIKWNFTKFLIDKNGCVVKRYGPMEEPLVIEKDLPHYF
Protocol: as §1, with “5000” for “8000”, “by freeze-thaw treatment.” for “with Frozen Type Tissuelyser.”, “GPX4 activity” for “GSH contents”, “GPX” for “GSH”

[4] = EJ tumor tissues, 8 mg/kg i.v., versus PBS, Gi-F and Gi-F-SA

Compound: CC(C)C[C@H](NC(=O)c1ccc(-c2c3nc(c(-c4ccc(C(=O)O)cc4)c4ccc([nH]4)c(-c4ccc(C(=O)O)cc4)c4nc(c(-c5ccc(C(=O)O)cc5)c5ccc2[nH]5)C=C4)C=C3)cc1)C(=O)N[C@@H](CCCCNC(=O)/C=C(/CC(=O)O)C(=O)O)C(=O)N[C@@H](CC(C)C)C(=O)N[C@@H](CCCCN)C(=O)N[C@@H](CC(C)C)C(=O)N[C@@H](CCCCNC(=O)/C=C(/CC(=O)O)C(=O)O)C(=O)NCC(=O)N[C@@H](C)C(=O)N[C@H]1CSSC[C@@H](C(=O)N2CCC[C@H]2C(=O)N[C@H](C(=O)O)C(C)C)NC(=O)[C@@H]2CCCN2C(=O)[C@H](Cc2ccc(O)cc2)NC(=O)[C@H](CC(C)C)NC(=O)[C@@H]2CCCN2C(=O)[C@H](CC(C)C)NC(=O)[C@H](Cc2c[nH]c3ccccc23)NC(=O)[C@H](CC(N)=O)NC1=O [Gi-F-CAA] (X1-LK(X2)LKLK(X2)GACNWLPLYPCPV-OH; disulfide 9-17; C-terminus assumed)
- GSH levels of tumor tissues (EJ tumor tissues [1]; [4]): substantial reduction of GSH levels
- Relative content of GSH (EJ tumor tissues [1]; mice 1): 0.248
- Relative content of GSH (EJ tumor tissues [1]; mice 2): 0.322
- Relative content of GSH (EJ tumor tissues [1]; mice 3): 0.359
- Relative content of GSH (EJ tumor tissues [1]; mice 4): 0.285
- Relative content of GSH (EJ tumor tissues [1]; mice 5): 0.331
- Relative content of GSH (EJ tumor tissues [1]; mice 6): 0.276
- ζ-potential change after incubation at pH 6.5 (ζ-potential in PBS; 40 μM in PBS 0.01 M, pH 6.5): increased considerably
- Zeta potential (mV) (ζ-potential in PBS; pH 6.5, 0 min, mean): -25.5 mV
- Zeta potential (mV) (ζ-potential in PBS; pH 6.5, 10 min, mean): -19.8 mV
- Zeta potential (mV) (ζ-potential in PBS; pH 6.5, 30 min, mean): -12.4 mV
- Zeta potential (mV) (ζ-potential in PBS; pH 6.5, 60 min, mean): -7.6 mV
- Zeta potential (mV) (ζ-potential in PBS; pH 6.5, 90 min, mean): -6.4 mV
- Zeta potential (mV) (ζ-potential in PBS; pH 6.5, 120 min, mean): -5.5 mV
- Zeta potential (mV) (ζ-potential in PBS; pH 7.4, 0 min, mean): -27.3 mV
- Zeta potential (mV) (ζ-potential in PBS; pH 7.4, 10 min, mean): -25.6 mV
- Zeta potential (mV) (ζ-potential in PBS; pH 7.4, 30 min, mean): -24.4 mV
- Zeta potential (mV) (ζ-potential in PBS; pH 7.4, 60 min, mean): -23.4 mV
- Zeta potential (mV) (ζ-potential in PBS; pH 7.4, 90 min, mean): -22.6 mV
- Zeta potential (mV) (ζ-potential in PBS; pH 7.4, 120 min, mean): -22.5 mV
- mean tumor volume at 18 days post injection (EJ xenograft tumors): 552 mm^3
- Tumor weight (EJ xenograft tumors; mice 1): 0.398 g
- Tumor weight (EJ xenograft tumors; mice 2): 0.419 g
- Tumor weight (EJ xenograft tumors; mice 3): 0.47 g
- Tumor weight (EJ xenograft tumors; mice 4): 0.318 g
- Tumor weight (EJ xenograft tumors; mice 5): 0.548 g
- Tumor weight (EJ xenograft tumors; mice 6): 0.402 g
- LPO levels of tumor tissues (EJ tumor tissues [2]; [4]): elevation
- Relative content of MDA (EJ tumor tissues [2]; mice 1): 4.75
- Relative content of MDA (EJ tumor tissues [2]; mice 2): 4.25
- Relative content of MDA (EJ tumor tissues [2]; mice 3): 4.65
- Relative content of MDA (EJ tumor tissues [2]; mice 4): 5.15
- Relative content of MDA (EJ tumor tissues [2]; mice 5): 4.25
- Relative content of MDA (EJ tumor tissues [2]; mice 6): 4.75
- Hydrolysis of CAA (%) ([3]; pH 6.5 buffer, 0 min): 0%
- Hydrolysis of CAA (%) ([3]; pH 6.5 buffer, 20 min): 17.6%
- Hydrolysis of CAA (%) ([3]; pH 6.5 buffer, 40 min): 43.7%
- Hydrolysis of CAA (%) ([3]; pH 6.5 buffer, 60 min): 53.6%
- Hydrolysis of CAA (%) ([3]; pH 6.5 buffer, 120 min): 56.9%
- Hydrolysis of CAA (%) ([3]; pH 6.5 buffer, 240 min): 57.5%
- Hydrolysis of CAA (%) ([3]; pH 7.4 buffer, 0 min): 0%
- Hydrolysis of CAA (%) ([3]; pH 7.4 buffer, 20 min): 3.1%
- Hydrolysis of CAA (%) ([3]; pH 7.4 buffer, 40 min): 10.9%
- Hydrolysis of CAA (%) ([3]; pH 7.4 buffer, 60 min): 12.1%
- Hydrolysis of CAA (%) ([3]; pH 7.4 buffer, 120 min): 13.1%
- Hydrolysis of CAA (%) ([3]; pH 7.4 buffer, 240 min): 14.3%
- tumor penetration, fluorescence distribution in tumor sections (EJ xenograft tumor; EJ xenograft mice, Cy-labeled, 8 mg/kg i.v.): distributed all over the tumor tissues
- cytotoxicity with ferroptosis inhibitor Fer-1 (EJ cells; EJ cells, pH 6.5, 48 h, Fer-1, Supplementary Fig. 26): successfully rescued by Fer-1
- Relative activity of GPX4 (GPX4; mice 1): 0.21
- Relative activity of GPX4 (GPX4; mice 2): 0.22
- Relative activity of GPX4 (GPX4; mice 3): 0.2
- Relative activity of GPX4 (GPX4; mice 4): 0.21
- Relative activity of GPX4 (GPX4; mice 5): 0.22
- Relative activity of GPX4 (GPX4; mice 6): 0.2

Compound: FeTCPP-LKLKLKGACNWLPLYPCPV (disulfide) [Gi-F]
- Relative content of GSH (EJ tumor tissues [1]; mice 1): 0.74
- Relative content of GSH (EJ tumor tissues [1]; mice 2): 0.713
- Relative content of GSH (EJ tumor tissues [1]; mice 3): 0.713
- Relative content of GSH (EJ tumor tissues [1]; mice 4): 0.681
- Relative content of GSH (EJ tumor tissues [1]; mice 5): 0.676
- Relative content of GSH (EJ tumor tissues [1]; mice 6): 0.763
- Zeta potential (mV) (ζ-potential in PBS; 40 μM in PBS, pH 7.4, mean of n = 3): -8.4 mV
- mean tumor volume at 18 days post injection (EJ xenograft tumors): 1426 mm^3
- Tumor weight (EJ xenograft tumors; mice 1): 1.433 g
- Tumor weight (EJ xenograft tumors; mice 2): 1.25 g
- Tumor weight (EJ xenograft tumors; mice 3): 1.087 g
- Tumor weight (EJ xenograft tumors; mice 4): 1.055 g
- Tumor weight (EJ xenograft tumors; mice 5): 0.939 g
- Tumor weight (EJ xenograft tumors; mice 6): 1.259 g
- Relative content of MDA (EJ tumor tissues [2]; mice 1): 2.1
- Relative content of MDA (EJ tumor tissues [2]; mice 2): 2.6
- Relative content of MDA (EJ tumor tissues [2]; mice 3): 2.35
- Relative content of MDA (EJ tumor tissues [2]; mice 4): 2.5
- Relative content of MDA (EJ tumor tissues [2]; mice 5): 2.3
- Relative content of MDA (EJ tumor tissues [2]; mice 6): 2.45
- tumor penetration, fluorescence distribution in tumor sections (EJ xenograft tumor; mouse, in vivo, iv, 8 mg/kg): only distributed around the periphery of tumor tissues
- IC50 (EJ cells; pH 7.4): 11.3 µM
- Relative activity of GPX4 (GPX4; mice 1): 0.57
- Relative activity of GPX4 (GPX4; mice 2): 0.52
- Relative activity of GPX4 (GPX4; mice 3): 0.57
- Relative activity of GPX4 (GPX4; mice 4): 0.57
- Relative activity of GPX4 (GPX4; mice 5): 0.52
- Relative activity of GPX4 (GPX4; mice 6): 0.57
